Source: patent publication US5792767A, “Bicyclic substituted hexahydrobenz [e] isoindole alpha-1 adrenergic antagonists” (priority 1995, dated 1998)
Counter-ions that a name gives are not always drawn.

The compounds below were run against T1, α-1A adrenoceptor (dog prostate) (assay: Functional antagonism of phenylephrine-induced contraction of canine prostate strips). Conditions: vs phenylephrine-induced contraction, Schild plot; read-out: pA2 Dog Prostate [α-1A] (converted).
T1 construct: from tissue; host or cells: canine prostate strips
T1 sequence (P35348 whole entry): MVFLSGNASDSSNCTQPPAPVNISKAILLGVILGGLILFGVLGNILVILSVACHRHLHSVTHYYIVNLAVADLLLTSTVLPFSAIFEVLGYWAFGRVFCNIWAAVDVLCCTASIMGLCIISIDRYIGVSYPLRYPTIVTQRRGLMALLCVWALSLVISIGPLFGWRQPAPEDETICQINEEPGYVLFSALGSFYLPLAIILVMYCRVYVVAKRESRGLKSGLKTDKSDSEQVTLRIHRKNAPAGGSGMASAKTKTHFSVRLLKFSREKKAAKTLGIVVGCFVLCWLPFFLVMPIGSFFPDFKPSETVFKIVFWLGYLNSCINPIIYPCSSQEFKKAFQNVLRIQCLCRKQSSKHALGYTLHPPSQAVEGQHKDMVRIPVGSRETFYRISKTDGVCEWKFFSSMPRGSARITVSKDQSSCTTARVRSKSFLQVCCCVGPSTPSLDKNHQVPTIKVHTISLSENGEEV
Format: cell-based, dog (canine)
Excerpt: Canine prostate strips were used in vitro as previously described (Hieble, J. P., Boyce, A. J. and Caine, M., Fed. Proc., 45: 2609-2614 (1986)), to determine antagonist potencies against phenylephrine-induced contractions.
Functional assays indicative of pharmacologically defined α-1 adrenoceptors were used to further characterize compounds. Inhibition of phenylephrine (PE)-induced contraction of canine prostate smooth muscle can be correlated with α-1A adrenoceptor activation. […] For each of these models, agonist dose response curves were repeated against increasing concentrations of test agent to derive a Schild plot [log ([…]) against log (molarity of test agent)] to determine the pA2.
For `COc1cccc2c1CC[C@H]1CN(CCn3c(=O)[nH]c4scc(C)c4c3=O)C[C@@H]21` (relative stereo) [Example 4, hydrochloride], the Kb was 12.3 nM. For `COc1cccc2c1CC[C@H]1CN(CCn3c(=O)[nH]c4scc(-c5ccccc5)c4c3=O)C[C@@H]21` (relative stereo) [Example 6, hydrochloride], the Kb was 47.9 nM. Compound `COc1cccc2c1CC[C@H]1CN(CCn3c(=O)[nH]c4sc(-c5ccccc5)cc4c3=O)C[C@@H]21` (relative stereo) [Example 7, 3-[2-(cis-6-Methoxy-2,3,3a,4,5,9b-hexahydro-[1H]-benz[e]isoindol-1-yl)ethyl]-6-phenyl-thieno[2,3-d]pyrimidine-2,4(1H,3H)-dione hydrochloride] has a Kb of 24 nM. In the case of `COc1cccc2c1CC[C@H]1CN(CCn3c(=O)[nH]c4cc(Cl)ccc4c3=O)C[C@@H]21` (relative stereo) [Example 11, hydrochloride], the Kb is reported as 1.2 nM. `COC(=O)c1ccc2c(=O)n(CCN3C[C@@H]4CCc5c(OC)cccc5[C@@H]4C3)c(=O)[nH]c2c1` (relative stereo) [Example 14, hydrochloride] showed a Kb of 0.977 nM. For `COc1cccc2c1CC[C@H]1CN(CCn3c(=O)[nH]c4ccc(F)cc4c3=O)C[C@@H]21` (relative stereo) [Example 15, 3-[2-(cis-6-Methoxy-2,3,3a,4,5,9b-hexahydro-[1H]-benz[e]isoindol-1-yl)ethyl]-6-fluoro-quinazoline-2,4(1H,3H)-dione hydrochloride], the Kb was 5.37 nM. With `COc1cccc2c1CC[C@H]1CN(CCn3c(=O)[nH]c4ccc([N+](=O)[O-])cc4c3=O)C[C@@H]21` (relative stereo) [Example 16, hydrochloride] the Kb was 12.3 nM. `COc1ccc2[nH]c(=O)n(CCN3C[C@@H]4CCc5c(OC)cccc5[C@@H]4C3)c(=O)c2c1` (relative stereo) [Example 17, hydrochloride] showed a Kb of 1.15 nM. Compound `COc1cccc2c1CC[C@H]1CN(CCn3c(=O)[nH]c4c(OC)c(OC)c(OC)cc4c3=O)C[C@@H]21` (relative stereo) [Example 18, 3-[2-(cis-6-Methoxy-2,3,3a,4,5,9b-hexahydro-[1H]-benz[e]isoindol-1-yl)ethyl]-6,7,8-trimethoxy-quinazoline-2,4(1H,3H)-dione hydrochloride] has a Kb of 4.17 nM. Compound `COc1cccc2c1CC[C@H]1CN(CCn3c(=O)[nH]c4c(C)cccc4c3=O)C[C@@H]21` (relative stereo) [Example 19, hydrochloride] has a Kb of 5.01 nM. `COc1cccc2c1CC[C@H]1CN(CCn3c(=O)[nH]c4c(C)cc(C)cc4c3=O)C[C@@H]21` (relative stereo) [Example 20, hydrochloride] gave a Kb of 1.48 nM. `COc1cccc2c1CC[C@H]1CN(CCn3c(=O)[nH]c4ncccc4c3=O)C[C@@H]21` (relative stereo) [Example 21, 3-[2-(cis-6-Methoxy-2,3 3a,4,5,9b-hexahydro-[1H]-benz[e]isoindol-1-yl)ethyl]-pyrido[2,3-d]pyrimidine-2,4(1H,3H)-dione hydrochloride] showed a Kb of 13.2 nM. With `COc1cccc2c1CC[C@H]1CN(CCn3c(=O)[nH]c4cccnc4c3=O)C[C@@H]21` (relative stereo) [Example 22, hydrochloride] the Kb was 1.51 nM. Compound `COc1cccc2c1CC[C@H]1CN(CCn3c(=O)[nH]c4cccc(Cl)c4c3=O)C[C@@H]21` (relative stereo) [Example 23, hydrochloride] has a Kb of 4.79 nM. `COc1cccc2c1CC[C@H]1CN(CCn3c(=O)[nH]c4cnccc4c3=O)C[C@@H]21` (relative stereo) [Example 24, dihydrochloride] gave a Kb of 1.29 nM. `COc1cccc2c1CC[C@H]1CN(CCn3c(=O)[nH]c4cc(F)ccc4c3=O)C[C@@H]21` (relative stereo) [Example 25, 3-[2-(cis-6-Methoxy-2,3,3a,4,5,9b-hexahydro-[1H]-benz[e]isoindol-1-yl)ethyl]-7-fluoro-quinazoline-2,4(1H,3H)-dione hydrochloride] gave a Kb of 0.676 nM. `COc1cccc2c1CC[C@H]1CN(CCn3c(=O)c4ccccc4n(C)c3=O)C[C@@H]21` (relative stereo) [Example 26, hydrochloride] showed a Kb of 0.589 nM. `COc1cccc2c1CC[C@H]1CN(CCn3c(=O)[nH]c4ccncc4c3=O)C[C@@H]21` (relative stereo) [Example 27, dihydrochloride] showed a Kb of 2.34 nM. `COc1cccc2c1CC[C@H]1CN(CCn3c(=O)[nH]c4c(cnn4C)c3=O)C[C@@H]21` (relative stereo) [Example 28, hydrochloride] showed a Kb of 4.79 nM. With `COc1cccc2c1CC[C@H]1CN(CCn3c(=O)[nH]c4sc(C)cc4c3=O)C[C@@H]21` (relative stereo) [Example 29, hydrochloride] the Kb was 1.23 nM. `COc1cccc2c1CC[C@H]1CN(CCn3c(=O)[nH]c4[nH]ccc4c3=O)C[C@@H]21` (relative stereo) [Example 30] gave a Kb of 1.15 nM. For `COc1cccc2c1CC[C@H]1CN(CCn3c(=O)[nH]c4cc(-c5ccccc5)sc4c3=O)C[C@@H]21` (relative stereo) [Example 32, hydrochloride], the Kb was 33.9 nM. `COc1cccc2c1CC[C@H]1CN(CCn3cnc4ccccc4c3=O)C[C@@H]21` (relative stereo) [Example 34, dihydrochloride] gave a Kb of 1.05 nM. Work on `O=c1[nH]c2sccc2c(=O)n1CCN1C[C@@H]2CCc3c(O)cccc3[C@@H]2C1` (relative stereo) [Example 35, hydrobromide] yielded a Kb of 87.1 nM. For `COc1cccc2c1CC[C@H]1CN(CCn3c(=O)[nH]c4cc5c(cc4c3=O)OCO5)C[C@@H]21` [Example 37, hydrochloride], the Kb was 0.24 nM. `COc1cccc2c1CC[C@H]1CN(CCn3c(=O)[nH]c4cc5c(cc4c3=O)OCCO5)C[C@@H]21` [Example 38, hydrochloride] was tested, and the Kb was 0.229 nM. In the case of `COc1cccc2c1CC[C@H]1CN(CCN3Cc4ccccc4NC3=O)C[C@@H]21` [Example 44, hydrochloride], the Kb is reported as 5.37 nM. In the case of `COc1cccc2c1CC[C@H]1CN(CCn3c(=O)[nH]c4cc(C(N)=O)ccc4c3=O)C[C@@H]21` [Example 46, hydrochloride], the Kb is reported as 0.575 nM. `COc1cccc2c1CC[C@H]1CN(CCn3c(=O)[nH]c4cc(C(=O)N(C)C)ccc4c3=O)C[C@@H]21` [Example 47, 3-[2-((3aR ,9bR)-cis-6-Methoxy-2,3,3a,4,5,9b-hexahydro-[1H]-benz[e]isoindol-1-yl)ethyl]-7-(N,N'-dimethyl)carbamylguinazoline-2,4(1H,3H)-dione hydrochloride] was tested, and the Kb was 1.62 nM. For `COc1cccc2c1CC[C@H]1CN(CCn3c(=O)[nH]c4c(Cl)c(OC)c(Cl)cc4c3=O)C[C@@H]21` [Example 48, hydrochloride], the Kb was 6.46 nM. `COc1cc2c(=O)n(CCN3C[C@@H]4CCc5c(OC)cccc5[C@@H]4C3)c(=O)[nH]c2cc1Cl` [Example 49, hydrochloride] gave a Kb of 12 nM. Compound `COc1ccc2c(=O)n(CCN3C[C@@H]4CCc5c(OC)cccc5[C@@H]4C3)c(=O)n(C)c2c1` [Example 50, hydrochloride] has a Kb of 0.631 nM. `COc1cc2c(cc1Cl)c(=O)n(CCN1C[C@@H]3CCc4c(OC)cccc4[C@@H]3C1)c(=O)n2C` [Example 51, hydrochloride] showed a Kb of 14.1 nM. `COc1cccc2c1CC[C@H]1CN(CCn3c(=O)[nH]c4ccc5c(c4c3=O)OCO5)C[C@@H]21` [Example 53, hydrochloride] was tested, and the Kb was 1.95 nM. For `COc1cccc2c1CC[C@H]1CN(CCn3c(=O)[nH]c4c5c(ccc4c3=O)OCO5)C[C@@H]21` [Example 54, hydrochloride], the Kb was 0.891 nM. Work on `COc1cccc2c1CC[C@H]1CN(CCn3c(=O)oc4cc5c(cc4c3=O)OCO5)C[C@@H]21` [Example 55, hydrochloride] yielded a Kb of 4.9 nM. `COc1cccc2c1CC[C@H]1CN(CCn3cnc4c(C)c(C)ccc4c3=O)C[C@@H]21` [Example 57, dihydrochloride] was tested, and the Kb was 7.24 nM. For `COc1cccc2c1CC[C@H]1CN(CCn3cnc4c(OC)c(OC)ccc4c3=O)C[C@@H]21` [Example 58, dihydrochloride], the Kb was 1.26 nM. Work on `COC(=O)c1cc2c(=O)n(CCN3C[C@@H]4CCc5c(OC)cccc5[C@@H]4C3)c(=O)[nH]c2s1` [Example 59, hydrochloride] yielded a Kb of 3.31 nM. In the case of `COC(=O)c1cc2[nH]c(=O)n(CCN3C[C@@H]4CCc5c(OC)cccc5[C@@H]4C3)c(=O)c2s1` [Example 60, hydrochloride], the Kb is reported as 0.708 nM. `CCOC(=O)c1c[nH]c2[nH]c(=O)n(CCN3C[C@@H]4CCc5c(OC)cccc5[C@@H]4C3)c(=O)c12` [Example 61, hydrochloride] showed a Kb of 2.29 nM. Compound `COc1cccc2c1CC[C@H]1CN(CCn3c(=O)[nH]c4c(-c5ccccc5)c(OC)sc4c3=O)C[C@@H]21` [Example 62, hydrochloride] has a Kb of 2.57 nM. For `CCc1c(OC)sc2c(=O)n(CCN3C[C@@H]4CCc5c(OC)cccc5[C@@H]4C3)c(=O)[nH]c12` [Example 63, hydrochloride], the Kb was 1.35 nM. `COc1cccc2c1CC[C@H]1CN(CCn3c(=O)[nH]c4c(C)c(OC)sc4c3=O)C[C@@H]21` [Example 64, 3-[2-((3aR,9bR)-cis-6-Methoxy-2,3,3a,4,5,9b-hexahydro-[1H]-benz[e]isoindol-1-yl)ethyl]-6-methoxy-7-methylthieno [3,2-d]primidine-2,4(1H,3H)-dione hydrochloride] showed a Kb of 1.55 nM. Work on `COc1cccc2c1CC[C@H]1CN(CCn3c(=O)[nH]c4c(C(C)C)c(OC)sc4c3=O)C[C@@H]21` [Example 65, -[2-((3aR,9bR)-cis-6-Methoxy-2,3,3a,4,5,9b-hexahydro-[1H]-benz[e]isoindol-1-yl)ethyl]-6-methoxy-7-isopropylthieno [3,2-d]pyrimidine-2,4(1H,3H)-dione hydrochloride] yielded a Kb of 2.34 nM. Work on `COc1cccc2c1CC[C@H]1CN(CCn3c(=O)[nH]c4c(C)c(C)cnc4c3=O)C[C@@H]21` [Example 66, dihydrochloride] yielded a Kb of 1.15 nM.
